This note sets out measurements from patent US20250049025A1, “SURFACTANTS FOR USE IN AGRICULTURAL FORMULATIONS” (AdvanSix Resins & Chemicals LLC, priority 2023, published 2025).

One data set has as its system S. aureus (6538). The data set can be described thus: Minimum inhibitory concentration (MIC) test, serial dilution. It is filed as cell-based, Staphylococcus aureus. The text has this: (§1) Surfactants of the present disclosure have been shown in a standard protocol to assess antimicrobial activities called minimum inhibitory concentration (MIC) tests.
(§2) The antimicrobial properties of surfactants were examined using known methods and standard protocols, and various types of microorganisms as treatment targets. More specifically a minimum inhibitory concentration (MIC) test protocol was applied, using serial dilution method, giving concentration-dependent microorganism growth inhibition measurements against gram positive (e.g., Streptococcus mutans, which is anaerobic, and Staphylococcus aureus, which is usually aerobic but can grow also anaerobically), gram negative (e.g., Escherichia coli, which is anaerobic, or Pseudomonas aeruginosa, which is aerobic).
(§3) Bacteria were propagated overnight in a suitable growth medium, which was a Tryptic Soy Broth. Prior to testing, the concentrations of the test organisms were established using a spectrophotometer that can measure optical density. Those bacterial samples were then diluted to about 1E3 to 1E4 CFU/mL. Thereafter, […] of the bacterial cultures thus prepared were inoculated into test wells of a 96-well plate, each containing suitable growth media, which was Tryptic Soy Agar, and once the bacterial cultures were inoculated, these wells were then treated with the test specimen, serially diluted, incubated at a temperature of 37+/−1° C. and relative humidity of not less than 90% for about 24+/−1 hour.
(§4) Test surfactants were prepared into dilution series. All dilutions were conducted serially using a multichannel pipetter into 96-well microtiter plates.
(§5) The MIC was then used to determine the approximate concentration of the test surfactant at which there was inhibition of bacterial growth. […]
(§6) Test measurements were made on replicate 96-well plates, and reported as the rounded whole number average of the determined MIC. […] Measurement variability was then reported based on the determined average in the form of MIC+/−.

The next data set has as its system P. aeruginosa (9027). The data set is described as above. Type of data set: cell-based, Pseudomonas aeruginosa. Particulars: 24 hours, serial dilution 1.7 fold, 400 ppm max.
Excerpt: as §1, §2
(§7) Bacteria were propagated overnight in a suitable growth medium, which was a Tryptic Soy Broth. Prior to testing, the concentrations of the test organisms were established using a spectrophotometer that can measure optical density. Those bacterial samples were then diluted to about 1E3 to 1E4 CFU/mL. […]
as §6

For another data set, the system named is S. mutans (25715). The data set is described as above. Type of data set: cell-based, Streptococcus mutans.
Excerpt: as §1, §2, §3, §4, §5, §6

Another data set has as its system E. coli (8739). Described as above. Type of data set: cell-based, Escherichia coli. To be noted: 24 hours, serial dilution 1.7 fold.
Excerpt: as §1, §2, §7, §6

Data set [1] in a line: Critical micelle concentration and minimum surface tension from surface tension versus concentration in water (Wilhelmy plate method). Type of data set: physicochemical. To be noted: for critical micelle concentration (CMC) / plateau value of minimum surface tension: in water; for interfacial activity / surfactant properties (in words): judged from CMC and minimum surface tension. The text has this:
These properties may be measured and described by various methods. One method by which surfactants may be described is by the molecule's critical micelle concentration (CMC). CMC may be defined as the concentration of a surfactant at which micelles form, and above which all additional surfactant is incorporated into micelles.
As surfactant concentration increases, surface tension decreases. Once the surface is completely overlaid with surfactant molecules, micelles begin to form. This point represents the CMC, as well as the minimum surface tension. Further addition of surfactant will not further affect the surface tension. CMC may therefore be measured by observing the change in surface tension as a function of surfactant concentration. One such method for measuring this value is the Wilhemy plate method. A Wilhelmy plate is usually a thin iridium-platinum plate attached to a balance by a wire and placed perpendicularly to the air-liquid interface. The balance is used to measure the force exerted on the plate by wetting. This value is then used to calculate the surface tension (γ) according to Equation 1: […]
wherein I is equal to the wetted perimeter (2w+2d, in which w and d are the plate thickness and width, respectively) and cos θ, the contact angle between the liquid and the plate, is assumed to be 0 in the absence of an extant literature value.
Nuclear magnetic resonance (NMR) spectroscopy was performed on a Bruker 500 MHz spectrometer. The critical micelle concentration (CMC) was determined by the Wilhelmy plate method at 23° C. with a tensiometer (DCAT 11, DataPhysics Instruments GmbH) equipped with a Pt—Ir plate. Dynamic surface tension was determined with a bubble pressure tensiometer (Krüss BP100, Krüss GmbH), at 23° C. Contact angle was determined with the optical contact angle goniometer (OCA 15 Pro, DataPhysics GmbH) equipped with a digital camera.

Setting [2] is: 24 hours, serial dilution 1.7 fold, 20 ppm max.

Where two headings read alike, the source gives them in different places.

For orientation: MIC means the least concentration at which growth counts as inhibited. As for `CCCCCCCCCCCCCC[N+](C)(C)Cc1ccccc1.[Cl-]` [ADBAC, reference compound], the MIC in the data set on S. aureus (6538) (setting [2]) is on record as 7 +/− 3 ppm; with P. aeruginosa (9027), 48 +/− 20 ppm; with S. mutans (25715) (setting [2]) it was 7 +/− 3 ppm; in the data set with E. coli (8739) (20 ppm max) it was 16 +/− 7 ppm.
For `C[N+](C)(CCCCCC(=O)NCCC[Si](O[Si](C)(C)C)(O[Si](C)(C)C)O[Si](C)(C)C)CC(=O)O` [Comparative Surfactant, N-(carboxymethyl)-6-((3-(1,1,1,5,5,5-hexamethyl-3-((trimethylsilyl)oxy)trisiloxan-3-yl)propyl)amino)-N,N-dimethyl-6-oxohexan-1-aminium bromide, reference compound], in data set [1] (23° C.), the “critical micelle concentration (CMC)” value is reported as “about 17.28 mmol” and the “plateau value of minimum surface tension” value is “about 29.16 mN/m”. In addition, the “interfacial activity / surfactant properties (in words)” value in data set [1] is reported as “inferior surfactant properties”.
For `C[N+](C)(CCCCCC(=O)NCCC[Si](O[Si](C)(C)C)(O[Si](C)(C)C)O[Si](C)(C)C)Cc1ccccc1` [Surfactant 1, N-benzyl-6-((3-(1,1,1,5,5,5-hexamethyl-3-((trimethylsilyl)oxy)trisiloxan-3-yl)propyl)amino)-N,N-dimethyl-6-oxohexan-1-aminium bromide], the “plateau value of minimum surface tension” value in data set [1] (23° C.) is “around 20.67 mN/m”. Also, the “critical micelle concentration (CMC)” value in data set [1] (pH 8, 23° C.) was “about 9.883 mmol”. Besides, the “interfacial activity / surfactant properties (in words)” value in data set [1] is reported as “outstanding interfacial activity”.
In the case of `CCOC(=O)C[N+](C)(C)CCCCCC(=O)NCCC[Si](O[Si](C)(C)C)(O[Si](C)(C)C)O[Si](C)(C)C` [Surfactant 2, N-(2-ethoxy-2-oxoethyl)-6-((3-(1,1,1,5,5,5-hexamethyl-3-((trimethylsilyl)oxy)trisiloxan-3-yl)propyl)amino)-N,N-dimethyl-6-oxohexan-1-aminium bromide], in data set [1] (23° C.), the “critical micelle concentration (CMC)” value is “about 0.2171 mmol” and the “plateau value of minimum surface tension” value was “around 20.36 mN/m”. The “interfacial activity / surfactant properties (in words)” value in data set [1] is on record as “outstanding interfacial activity”.
Consider `C=CC[N+](C)(C)CCCCCC(=O)NCCC[Si](O[Si](C)(C)C)(O[Si](C)(C)C)O[Si](C)(C)C` [Surfactant 3, N-allyl-6-((3-(1,1,1,5,5,5-hexamethyl-3-((trimethylsilyl)oxy)trisiloxan-3-yl)propyl)amino)-N,N-dimethyl-6-oxohexan-1-aminium iodide], for which, in data set [1] (23° C.), the “critical micelle concentration (CMC)” value is “about 1.3599 mmol” and the “plateau value of minimum surface tension” value is recorded as “about 20.67 mN/m”. Further, the “interfacial activity / surfactant properties (in words)” value in data set [1] was “outstanding interfacial activity”.
On to `C#CC[N+](C)(C)CCCCCC(=O)NCCC[Si](O[Si](C)(C)C)(O[Si](C)(C)C)O[Si](C)(C)C` [Surfactant 4, 6-((3-(1,1,1,5,5,5-hexamethyl-3-((trimethylsilyl)oxy)trisiloxan-3-yl)propyl)amino)-N,N-dimethyl-6-oxo-N-(prop-2-yn-1-yl)hexan-1-aminium bromide], for which, in data set [1] (23° C.), the “critical micelle concentration (CMC)” value is “about 0.2419 mmol” and the “plateau value of minimum surface tension” value is reported as “about 20.54 mN/m”. Besides, in data set [1], the “interfacial activity / surfactant properties (in words)” value was “outstanding interfacial activity”.
As for `COCCOCC[N+](C)(C)CCCCCC(=O)NCCC[Si](O[Si](C)(C)C)(O[Si](C)(C)C)O[Si](C)(C)C` [Surfactant 5, 6-((3-(1,1,1,5,5,5-hexamethyl-3-((trimethylsilyl)oxy)trisiloxan-3-yl)propyl)amino)-N-(2-(2-methoxyethoxy)ethyl)-N,N-dimethyl-6-oxohexan-1-aminium bromide], in data set [1] (23° C.), the “critical micelle concentration (CMC)” value is “about 0.4622 mmol” and the “plateau value of minimum surface tension” value was “about 20.40 mN/m”. Also, the “interfacial activity / surfactant properties (in words)” value in data set [1] is “outstanding interfacial activity”.
On to `CCOP(=O)(CCC[N+](C)(C)CCCCCC(=O)NCCC[Si](O[Si](C)(C)C)(O[Si](C)(C)C)O[Si](C)(C)C)OCC` [Surfactant 6, N-(3-(diethoxyphosphoryl)propyl)-6-((3-(1,1,1,5,5,5-hexamethyl-3-((trimethylsilyl)oxy)trisiloxan-3-yl)propyl)amino)-N,N-dimethyl-6-oxohexan-1-aminium bromide], for which the MIC in the data set on S. aureus (6538) (Staphylococcus aureus, 24 h) came out at 138 µg/mL; with S. mutans (25715) (Streptococcus mutans, 24 h), 81 µg/mL. For the same molecule, in data set [1] (23° C.), the “critical micelle concentration (CMC)” value was “about 0.3989 mmol”. In data set [1] (23° C.), the “plateau value of minimum surface tension” value was “about 20.48 mN/m”. For the same molecule, the “interfacial activity / surfactant properties (in words)” value in data set [1] is “outstanding interfacial activity”.
For `C[N+](C)(CCCO)CCCCCC(=O)NCCC[Si](O[Si](C)(C)C)(O[Si](C)(C)C)O[Si](C)(C)C` [Surfactant 7, 6-((3-(1,1,1,5,5,5-hexamethyl-3-((trimethylsilyl)oxy)trisiloxan-3-yl)propyl)amino)-N-(3-hydroxypropyl)-N,N-dimethyl-6-oxohexan-1-aminium iodide], in data set [1] (23° C.), the “critical micelle concentration (CMC)” value is reported as “about 0.4568 mmol” and the “plateau value of minimum surface tension” value is recorded as “about 20.61 mN/m”. Further, the “interfacial activity / surfactant properties (in words)” value in data set [1] is given as “outstanding interfacial activity”. For the same molecule, the MIC in the data set with P. aeruginosa (9027) (Pseudomonas aeruginosa, read-out: MIC) is 81 µg/mL. Besides, in the data set with E. coli (8739) (Escherichia coli, 400 ppm max, read-out: MIC), the MIC turned out to be 81 µg/mL.
`C[N+](C)(CCO)CCCCCC(=O)NCCC[Si](O[Si](C)(C)C)(O[Si](C)(C)C)O[Si](C)(C)C` [Surfactant 8, 6-((3-(1,1,1,5,5,5-hexamethyl-3-((trimethylsilyl)oxy)trisiloxan-3-yl)propyl)amino)-N-(2-hydroxyethyl)-N,N-dimethyl-6-oxohexan-1-aminium iodide]: in data set [1] (23° C.), the “critical micelle concentration (CMC)” value is listed as “about 0.9986 mmol” and the “plateau value of minimum surface tension” value is recorded as “about 20.41 mN/m”. The “interfacial activity / surfactant properties (in words)” value in data set [1] is given as “outstanding interfacial activity”.
As to `C[N+](C)(CCCCCC(=O)O)CCCCCC(=O)NCCC[Si](O[Si](C)(C)C)(O[Si](C)(C)C)O[Si](C)(C)C` [Surfactant 9, N-(5-carboxypentyl)-6-((3-(1,1,1,5,5,5-hexamethyl-3-((trimethylsilyl)oxy)trisiloxan-3-yl)propyl)amino)-N,N-dimethyl-6-oxohexan-1-aminium bromide], in the data set with S. aureus (6538) (Staphylococcus aureus, 24 hours, serial dilution 1.7 fold, 400 ppm max, read-out: MIC), the MIC worked out at 138 µg/mL. In data set [1] (23° C.), the “critical micelle concentration (CMC)” value is “about 0.2237 mmol” and the “plateau value of minimum surface tension” value was “about 20.52 mN/m”. In addition, in data set [1], the “interfacial activity / surfactant properties (in words)” value was “excellent interfacial activity”. Besides, the MIC with S. mutans (25715) (Streptococcus mutans, 24 hours, serial dilution 1.7 fold, 400 ppm max, read-out: MIC) came out at 81 µg/mL.
As to `C[N+](C)(CCCCCC(=O)NCCC[Si](O[Si](C)(C)C)(O[Si](C)(C)C)O[Si](C)(C)C)CCC[N+](C)(C)CCCCCC(=O)NCCC[Si](O[Si](C)(C)C)(O[Si](C)(C)C)O[Si](C)(C)C` [Surfactant 10, N^1,N^3-bis(6-((3-(1,1,1,5,5,5-hexamethyl-3-((trimethylsilyl)oxy)trisiloxan-3-yl)propyl)amino)-6-oxohexyl)-N^1,N^1,N^3,N^3-tetramethylpropane-1,3-diaminium dibromide], in data set [1] (23° C.), the “critical micelle concentration (CMC)” value was “about 0.0631 mmol” and the “plateau value of minimum surface tension” value is “about 22.12 mN/m”. Further, the “interfacial activity / surfactant properties (in words)” value in data set [1] is listed as “has interfacial activity”.
